Data on 1 compound can be found in US11021690B2, “Mutant-type uricase, PEG modified mutant-type uricase, and application thereof” (SHANGHAI INSTITUTE OF BIOLOGICAL PRODUCTS CO., LTD., priority 2015, dated 2021).

Assay [1] has as its system PEG-K103C: recombinant urate oxidase (uricase, PBC, SEQ ID NO: 1) mutant K103C, PEG-modified (mPEG-MAL, approximately 20 kD). The assay can be described thus: Determination of Michaelis constant of PEG-modified K103C (uric acid oxidation, UV absorbance at 290 nm). Format: biochemical. The settings on record: substrate uric acid, after PEG modification. As to the method: (§1) The activity of uricase was detected by UV spectrophotometry, enzymatic reaction rate was detected by measuring the decrease in absorbance at 290 nm caused by the oxidation of uric acid to allantoin. The enzyme activity unit is defined as follows: at 37° C., pH 8.5, the amount of uricase needed to catalyze the decomposition of 1 μmol of uric acid per minute is defined as 1 enzyme activity unit. The efficacy of uricase is represented as the activity unit of protein per mg (U/mg). […] Therefore, the oxidation of 1 μM uric acid in the reaction caused the reduction of absorbance by 12.04 mAu. The absorbance is derived from the linear part as the changes of the uric acid concentration. Wherein the calculation formula of enzyme activity is shown as follows: Enzyme activity (U/ml)=(ODb−ODt)*Vt*df/12.04*1.0*Vs*t
(§2) (Odb: the absorbance value in a blank control tube; Odt: the absorbance value in a detection tube; Vt: the total reaction volume, 1.28 ml; df: the dilution fold before sample addition to the system; Vs: the total volume after adding the test sample of uricase, 0.2 ml; t: the reaction time, 5 min; 12.04: the molar extinction coefficient of the substrate, uric acid under the test conditions; 1.0: optical path of cuvette, 1.0 cm) Enzyme activity (U/mg)=(U/ml)/C
(§3) (1) 1 mL of uric acid working solution was added to 2 EP tubes, respectively, marked as a reaction tube and a control tube, and subjected to the warm bath at 37° C. for 5 mins;
(§4) (2) Reaction tube: 200 μL of diluted enzyme solution was added at 37° C., and reacted for 5 min; control tube: no treatment at 37° C. and reacted for 5 min;
(§5) (3) Reaction tube: 80 μL, 20% of KOH was added to quench the reaction; control tube: after 80 μL, 20% of KOH was added to quench the reaction, 200 μL of diluted enzyme solution was added;
(4) UV absorption wavelength was determined at 290 nm. […]
(§6) By comparing Michaelis constant, the maximum enzymatic reaction rate and the catalytic constant of the mutant K103C before and after PEG modification, the effect of PEG modification on mutant uricase was evaluated.

Assay [2] deals with recombinant urate oxidase K103C (uricase, PBC, SEQ ID NO: 1, mutant K103C), unmodified. Nature of the assay: Determination of Michaelis constant of unmodified K103C (uric acid oxidation, UV absorbance at 290 nm). Format: biochemical. As to conditions: substrate uric acid, before PEG modification. As to the method: as §1, §2, §3, §4, §5
(4) UV absorption wavelength was determined at 290 nm.
as §6

SMILES strings stand for the structures.

As to `O=c1[nH]c(=O)c2[nH]c(=O)[nH]c2[nH]1` [uric acid], in assay [1], the Km worked out at 10.8 µM, the Vmax turned out to be 1.823 µM/min and the kcat was 12.396 s⁻¹. Further, in assay [2], the Km stood at 11.4 µM, the Vmax came out at 2.333 µM/min and the kcat came to 15.864 s⁻¹.

By Km is commonly meant the substrate concentration at which the rate is half of its maximum. As usually defined, the Vmax is the rate approached at saturating substrate. The kcat is the number of substrate molecules converted per active site and unit of time at saturation.
